These results are taken from PMC4222822, “Discovery and Characterization of a Potent and Selective Inhibitor of Aedes aegypti Inward Rectifier Potassium Channels” (PLoS ONE, 2014).

Usually pIC50 stands for the negative decadic logarithm of the IC50, by convention in mol/L.

One assay has as its target 5-HT2B receptor (Homo sapiens, UniProt P41595). Briefly: Radioligand displacement assay, 5-HT2B receptor. It is filed as binding, mammalian. Conditions: 10 µM VU625.
Another assay deals with AeKir1 (Aedes aegypti, UniProt L0EQS9). Briefly: Two-electrode electrophysiology of Xenopus oocytes expressing AeKir1. Conditions: inward current at −140 mV, 95% CI: 2.3–6.3 µM, n = 4–5 oocytes per concentration, read-out: IC50 of AeKir1 current inhibition. It is filed as cell-based. Here is the method:
AeKir1 and AeKir2B channels were expressed heterologously in Xenopus laevis oocytes as described previously. In brief, defolliculated Xenopus oocytes (purchased from Ecocyte Bioscience, Austin, TX) were injected with 10 ng (0.35 ng/nL) of either AeKir1 or AeKir2B cRNA and cultured for 3–7 days in OR3 media at 18°C. Oocytes injected with 28 nl of nuclease-free H2O served as controls.
All electrophysiological experiments on Xenopus oocytes were performed at room temperature. When present, VU625 was dissolved in solution III or solution V to a final concentration of 0.1, 1, 5, 15, or 50 µM (0.05% DMSO). All solutions were delivered by gravity to a RC-3Z oocyte chamber (Warner Instruments, Hamden, CT) via polyethylene tubing at a flow rate of ∼2 ml/min. Solution changes were made with a Rheodyne Teflon 8-way Rotary valve (Model 5012, Rheodyne, Rohnert Park, CA).
Electrophysiological recordings from oocytes were conducted as described previously In brief, each oocyte was transferred to the holding chamber under superfusion with solution I and impaled with two conventional-glass microelectrodes backfilled with 3 M KCl (resistances of 0.5–1.5 MΩ) to measure membrane potential (Vm) and whole-cell membrane current (Im), respectively. […] All Vm and Im values were recorded by a Digidata 1440A Data Acquisition System (Molecular Devices) and the Clampex module of pCLAMP. […]

Assay [1] deals with adult female mosquitoes (A. aegypti). Briefly: Mosquito excretion experiments (excretory capacity). It is filed as in vivo, Aedes aegypti. Conditions: 1 h after injection, mean ±SEM. Here is the method: The Aedes aegypti mosquito colony used in the present study is identical to that described previously. As before, only adult female mosquitoes 3–10 days post emergence were utilized for experiments.
The excretory capacity of mosquitoes was measured as described. In brief, after anesthetizing mosquitoes on ice, their hemolymph was injected as described above with 900 nL of a K^+-PBS vehicle containing 1.15% DMSO, 0.077% β-cyclodextrin, and 0.008% Solutol, or the vehicle containing VU625 (0.77 mM) to deliver a dose of 690 pmol of VU625 per mosquito. In experiments where probenecid was used, the vehicle was supplemented with water- soluble probenecid […] to deliver a dose of 3.4 nmol of probenecid per mosquito. After injection, the mosquitoes were placed immediately in a graduated, packed-cell volume tube (MidSci, St. Louis, MO; 5 mosquitoes per tube) and held at 28°C. The volume of urine excreted at 60 min post injection was measured as described previously, and all mosquitoes were confirmed to be alive at the end of 60 min period. For each treatment, 6–18 independent trials of 5 mosquitoes per treatment were performed.
Prism (GraphPad Software) was used to generate a dose-response curve for the toxicity of VU625; the doses (x-axis) were first log transformed and then the mortality data was normalized using Prism, where the smallest value and largest values in a data set equal ‘0%’ and ‘100%’, respectively. The data were then fitted using a ‘biphasic’ algorithm (<100 constraint) to calculate potencies (ED25 and ED75 values). To compare 1) the toxic effects among the vehicle, probenecid, VU625, and VU625 + probenecid treatments, and 2) the excretory capacity among the vehicle, probenecid, VU625, and VU625 + probenecid treatments, one-way ANOVAs were performed with Newman-Keuls posttests.

Another assay addresses melatonin MT1 receptor (Homo sapiens, UniProt P48039). As to the kind of experiment: Radioligand displacement assay, melatonin MT1 receptor. It is filed as binding, mammalian. Conditions: 10 µM VU625.

pIC50: −log10 of the molar value.

Chain of 5-HT2B receptor (P41595 whole entry): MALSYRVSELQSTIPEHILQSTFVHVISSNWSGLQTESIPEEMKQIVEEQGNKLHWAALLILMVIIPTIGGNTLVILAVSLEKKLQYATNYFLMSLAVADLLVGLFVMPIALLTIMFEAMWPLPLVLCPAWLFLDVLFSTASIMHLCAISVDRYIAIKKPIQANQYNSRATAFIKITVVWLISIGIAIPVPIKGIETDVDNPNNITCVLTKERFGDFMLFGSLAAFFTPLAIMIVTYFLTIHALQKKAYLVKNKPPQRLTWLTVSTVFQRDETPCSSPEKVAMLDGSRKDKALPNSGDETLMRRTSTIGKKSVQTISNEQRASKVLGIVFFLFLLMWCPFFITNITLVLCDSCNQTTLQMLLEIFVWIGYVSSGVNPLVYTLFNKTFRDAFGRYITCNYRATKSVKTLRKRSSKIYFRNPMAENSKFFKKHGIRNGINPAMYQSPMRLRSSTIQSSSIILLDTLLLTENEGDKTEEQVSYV
Chain of melatonin MT1 receptor (P48039 whole entry): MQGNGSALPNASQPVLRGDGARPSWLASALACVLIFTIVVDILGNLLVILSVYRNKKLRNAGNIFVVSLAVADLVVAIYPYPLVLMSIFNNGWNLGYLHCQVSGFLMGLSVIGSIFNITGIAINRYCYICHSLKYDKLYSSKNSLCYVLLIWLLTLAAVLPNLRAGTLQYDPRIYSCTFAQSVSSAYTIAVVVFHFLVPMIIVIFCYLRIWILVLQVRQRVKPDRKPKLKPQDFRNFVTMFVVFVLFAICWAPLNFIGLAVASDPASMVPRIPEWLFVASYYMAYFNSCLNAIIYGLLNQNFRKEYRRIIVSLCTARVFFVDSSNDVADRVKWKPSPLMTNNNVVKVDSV
Chain of AeKir1 (L0EQS9 entry or part of it): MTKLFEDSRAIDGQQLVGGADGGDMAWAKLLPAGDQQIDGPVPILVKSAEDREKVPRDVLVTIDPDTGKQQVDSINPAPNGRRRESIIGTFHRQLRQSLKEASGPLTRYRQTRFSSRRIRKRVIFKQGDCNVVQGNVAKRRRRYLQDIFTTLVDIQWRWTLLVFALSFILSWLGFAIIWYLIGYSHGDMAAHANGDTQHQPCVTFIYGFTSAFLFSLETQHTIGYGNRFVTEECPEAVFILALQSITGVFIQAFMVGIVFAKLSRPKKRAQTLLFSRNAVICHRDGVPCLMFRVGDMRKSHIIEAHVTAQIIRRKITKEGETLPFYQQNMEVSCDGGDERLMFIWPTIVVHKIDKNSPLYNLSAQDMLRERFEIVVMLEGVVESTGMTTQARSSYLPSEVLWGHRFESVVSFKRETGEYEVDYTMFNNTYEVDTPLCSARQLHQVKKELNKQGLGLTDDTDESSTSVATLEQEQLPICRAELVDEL

For the compound `CCC(=O)N1c2ccc(S(=O)(=O)Nc3cccc(OC)c3)cc2CC1C` (centres unmarked) [VU625, N-(3-methoxyphenyl)-2-methyl-1-propionylindoline-5-sulfonamide], the values for the radioligand displacement at 5-HT2B receptor and at melatonin MT1 receptor were 69% and 56%, respectively. Moreover, the pIC50 on AeKir1 is 5.42. For the same compound, the “excretory capacity (urine excreted)” value in assay [1] (VU625 690 pmol + probenecid 3.4 nmol per mosquito in 900 nL vehicle) is listed as 236.7±24.53 nL/female; in assay [1] (VU625 690 pmol per mosquito in 900 nL vehicle), 583.3±29.52 nL/female.
